Source: PubChem BioAssay AID256 (DTP/NCI, 2004)
Toxic doses and inconclusive results are not listed. Rule for the calls: active = survival T/C of 150% or more; inactive = T/C below 125% in these data.

System: CD2F1 mice, L1210 leukemia ip, survival T/C
Assay: NCI In Vivo Anticancer Drug Screen. Data for tumor model L1210 Leukemia (intraperitoneal) in CD2F1 (CDF1) mice
Conditions: higher = longer survival
In short: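 Ratio T/C, where T is the treated-group value and C the vehicle-dosed control value, from mice implanted with a transplantable tumor.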

[1] = endpoint: mean survival time, dose: 50.0 mg/kg/injection, schedule: Q04DX003 (ip), vehicle: saline
[2] = endpoint: mean survival time, dose: 100.0 mg/kg/injection, schedule: Q04DX003 (ip), vehicle: saline
[3] = endpoint: mean survival time, dose: 100.0 mg/kg/injection, schedule: Q04DX003 (ip), vehicle: saline with Tween-80
[4] = endpoint: mean survival time, dose: 200.0 mg/kg/injection, schedule: Q04DX003 (ip), vehicle: saline with Tween-80
[5] = endpoint: mean survival time, dose: 400.0 mg/kg/injection, schedule: Q04DX003 (ip), vehicle: saline with Tween-80

Measured: T/C

Nc1ccc(O)c2ccccc12
inactive: endpoint: mean survival time, dose: 1.5 mg/kg/injection, schedule: Q04DX003 (ip), vehicle: other 111 % of control | endpoint: mean survival time, dose: 3.0 mg/kg/injection, schedule: Q04DX003 (ip), vehicle: other 102 % of control

CCCCCCCCN1C(=O)CCC1=O
inactive: endpoint: mean survival time, dose: 100.0 mg/kg/injection, schedule: Q04DX002 (ip), vehicle: saline with Tween-80 103 % of control | endpoint: mean survival time, dose: 200.0 mg/kg/injection, schedule: Q04DX002 (ip), vehicle: saline with Tween-80 91 % of control

Nc1c2ccccc2c[n+]2ccccc12
inactive: endpoint: mean survival time, dose: 12.5 mg/kg/injection, schedule: Q04DX003 (ip), vehicle: saline 112 % of control | endpoint: mean survival time, dose: 25.0 mg/kg/injection, schedule: Q04DX003 (ip), vehicle: saline 124 % of control | [1] 114 % of control | [2] 121 % of control

C=CCOc1cccc(OCC=C)c1C
inactive: endpoint: mean survival time, dose: 100.0 mg/kg/injection, schedule: Q01DX009 (ip), vehicle: saline 102 % of control | endpoint: mean survival time, dose: 200.0 mg/kg/injection, schedule: Q01DX009 (ip), vehicle: saline 100 % of control | endpoint: mean survival time, dose: 400.0 mg/kg/injection, schedule: Q01DX009 (ip), vehicle: saline 100 % of control

Cn1c2ccccc2c2ccc3c(c21)C(=O)C=CC3=O
inactive: endpoint: median survival time, dose: 12.5 mg/kg/injection, schedule: Q01DX009 (ip), vehicle: Klucel (hydroxypropylcellulose) (HPC) 100 % of control | endpoint: median survival time, dose: 25.0 mg/kg/injection, schedule: Q01DX009 (ip), vehicle: Klucel (hydroxypropylcellulose) (HPC) 102 % of control | endpoint: median survival time, dose: 50.0 mg/kg/injection, schedule: Q01DX009 (ip), vehicle: Klucel (hydroxypropylcellulose) (HPC) 109 % of control

O=[N+]([O-])c1ccc(N=C(Cl)c2ccccc2)cc1
inactive: endpoint: mean survival time, dose: 100.0 mg/kg/injection, schedule: Q01DX009 (ip), vehicle: saline with Tween-80 101 % of control | endpoint: mean survival time, dose: 200.0 mg/kg/injection, schedule: Q01DX009 (ip), vehicle: saline with Tween-80 104 % of control | endpoint: mean survival time, dose: 400.0 mg/kg/injection, schedule: Q01DX009 (ip), vehicle: saline with Tween-80 104 % of control

[Cl][Hg][c]1ccc2ccccc2c1
inactive: endpoint: mean survival time, dose: 12.5 mg/kg/injection, schedule: Q04DX002 (ip), vehicle: saline with Tween-80 90 % of control | endpoint: mean survival time, dose: 25.0 mg/kg/injection, schedule: Q04DX002 (ip), vehicle: saline with Tween-80 102 % of control | endpoint: mean survival time, dose: 50.0 mg/kg/injection, schedule: Q04DX002 (ip), vehicle: saline with Tween-80 111 % of control

O=C(c1ccccc1)C1(Br)CCCCC1
inactive: [1] 95 % of control | endpoint: mean survival time, dose: 100.0 mg/kg/injection, schedule: Q04DX003 (ip), vehicle: Klucel (hydroxypropylcellulose) (HPC) 101 % of control | [2] 96 % of control | endpoint: mean survival time, dose: 200.0 mg/kg/injection, schedule: Q04DX003 (ip), vehicle: Klucel (hydroxypropylcellulose) (HPC) 96 % of control | endpoint: mean survival time, dose: 200.0 mg/kg/injection, schedule: Q04DX003 (ip), vehicle: saline 93 % of control | endpoint: mean survival time, dose: 400.0 mg/kg/injection, schedule: Q04DX003 (ip), vehicle: Klucel (hydroxypropylcellulose) (HPC) 106 % of control | endpoint: mean survival time, dose: 400.0 mg/kg/injection, schedule: Q04DX003 (ip), vehicle: saline 98 % of control

CC(=O)OC1CCC2(C)C(=CC=C3C2=CCC2(C)C3CCC2C(C)/C=C\C(C)C(C)C)C1 (centres undefined)
inactive: endpoint: mean survival time, dose: 50.0 mg/kg/injection, schedule: Q01DX009 (ip), vehicle: Klucel (hydroxypropylcellulose) (HPC) 96 % of control | endpoint: mean survival time, dose: 100.0 mg/kg/injection, schedule: Q01DX009 (ip), vehicle: Klucel (hydroxypropylcellulose) (HPC) 93 % of control | endpoint: mean survival time, dose: 200.0 mg/kg/injection, schedule: Q01DX009 (ip), vehicle: Klucel (hydroxypropylcellulose) (HPC) 101 % of control

C1COC2(CCC3C2C2CCC4(OCCO4)C32)O1 (centres undefined)
inactive: [3] 103 % of control | [4] 101 % of control | [5] 116 % of control

CC1(C)OC2C(CF)OC(n3cc(Br)c(=O)[nH]c3=O)C2O1 (centres undefined)
inactive: endpoint: median survival time, dose: 12.5 mg/kg/injection, schedule: Q01DX005 (ip), vehicle: distilled water + Tween-80 98 % of control | endpoint: median survival time, dose: 25.0 mg/kg/injection, schedule: Q01DX005 (ip), vehicle: distilled water + Tween-80 94 % of control | endpoint: median survival time, dose: 50.0 mg/kg/injection, schedule: Q01DX005 (ip), vehicle: distilled water + Tween-80 101 % of control | endpoint: median survival time, dose: 100.0 mg/kg/injection, schedule: Q01DX005 (ip), vehicle: distilled water + Tween-80 103 % of control | endpoint: median survival time, dose: 200.0 mg/kg/injection, schedule: Q01DX005 (ip), vehicle: distilled water + Tween-80 88 % of control

N#CC1(c2ccc(Cl)cc2)CCC1
inactive: endpoint: mean survival time, dose: 100.0 mg/kg/injection, schedule: Q01DX009 (ip), vehicle: saline sonified 102 % of control | [3] 101 % of control | endpoint: mean survival time, dose: 200.0 mg/kg/injection, schedule: Q01DX009 (ip), vehicle: saline sonified 92 % of control | [4] 101 % of control | endpoint: mean survival time, dose: 400.0 mg/kg/injection, schedule: Q01DX009 (ip), vehicle: saline sonified 105 % of control | [5] 100 % of control
